According to a flash point compilation (Sun et al. 2020):

**Q.** Which flash point does the source give for `CC=O` [ethanal] here?
**A.** The flash point was -39 °C.

**Q.** With `OCCCCCO` [1,5-pentanediol] as the compound, how does the flash point read?
**A.** The flash point was 136 °C.

**Q.** Which flash point does the source give for `CC(=O)O` [ethanoic acid] here?
**A.** Its flash point is 39 °C.

**Q.** Which flash point does the source give for `Fc1ccccc1` [fluorobenzene] here?
**A.** Its flash point is -15 °C.

**Q.** With `CCCCCCCCCC(C)O` (stereo not given) [2-undecanol] as the compound, how does the flash point read?
**A.** Its flash point is 107 °C.

**Q.** For `CCCCOC` [1-methoxybutane], which flash point is on record?
**A.** The flash point was -10 °C.

**Q.** Which flash point does the source give for `CCCCC(C=O)CC` (stereo not given) [2-ethylhexanal] here?
**A.** Its flash point is 46 °C.

**Q.** Which flash point does the source give for `CCCCCCCCN` [octylamine] here?
**A.** The flash point was 60 °C.

**Q.** Which flash point does the source give for `CC(=O)C=C(C)C` [mesityl oxide] here?
**A.** The flash point was 25 °C.

**Q.** With `CC(C)C=O` [2-methyl-1-propanal] as the compound, how does the flash point read?
**A.** The flash point was -25 °C.

**Q.** Which flash point does the source give for `CCCOC(=O)CCC` [propyl butyrate] here?
**A.** The flash point was 37 °C.

**Q.** For `CSCCC=O` [4-thiapentanal], which flash point is on record?
**A.** The flash point was 58 °C.

**Q.** With `CCC(C)I` (stereo not given) [2-iodobutane] as the compound, how does the flash point read?
**A.** Its flash point is 23 °C.

**Q.** Which flash point does the source give for `CC1CCCCC1O` (stereo not given) [2-methylcyclohexanol] here?
**A.** The flash point was 58 °C.

**Q.** For `Clc1ccccc1Cl` [1,2-dichlorobenzene], which flash point is on record?
**A.** Its flash point is 67 °C.

**Q.** With `CCCCOCCCN` [3-butoxypropylamine] as the compound, how does the flash point read?
**A.** The flash point was 63 °C.

**Q.** With `Cn1cccc1` [1-methylpyrrole] as the compound, how does the flash point read?
**A.** Its flash point is 15 °C.

**Q.** Which flash point does the source give for `O=C1C=CCCC1` [2-cyclohexen-1-one] here?
**A.** Its flash point is 34 °C.

**Q.** For `CCCC(=O)OC(=O)CCC` [butyric anhydride], which flash point is on record?
**A.** The flash point was 87 °C.

**Q.** Which flash point does the source give for `CCN` [ethylamine] here?
**A.** Its flash point is -17 °C.

**Q.** With `CC(O)CCC(C)O` (stereo not given) [2,5-hexanediol] as the compound, how does the flash point read?
**A.** The flash point was 101 °C.

**Q.** For `OCCCCO` [1,4-butanediol], which flash point is on record?
**A.** The flash point was 135 °C.

**Q.** With `C=CCI` [3-iodo-1-propene] as the compound, how does the flash point read?
**A.** Its flash point is 18 °C.

**Q.** For `CCC(C)(C)O.CCC(C)(C)O` [tert-amyl alcohol (2-methyl-2-butanol)], which flash point is on record?
**A.** The flash point was 20 °C.

**Q.** With `C=CC#N` [acrylonitrile] as the compound, how does the flash point read?
**A.** The flash point was -1 °C.

**Q.** Which flash point does the source give for `CCC(C)(C)O` [2-methyl-2-butanol] here?
**A.** The flash point was 21 °C.

**Q.** With `CC1CCCCC1C` (stereo not given) [1,2-dimethylcyclohexane] as the compound, how does the flash point read?
**A.** The flash point was 15 °C.

**Q.** With `CC=NO` [acetaldoxime] as the compound, how does the flash point read?
**A.** The flash point was 36 °C.

**Q.** For `CC(C)OC(C)C` [isopropyl ether], which flash point is on record?
**A.** The flash point was -29 °C.

**Q.** With `CNCCO` [2-methylaminoethanol] as the compound, how does the flash point read?
**A.** The flash point was 71 °C.

**Q.** With `CN(CCO)CCO` [methyldiethanolamine] as the compound, how does the flash point read?
**A.** The flash point was 138 °C.

**Q.** With `C=CC(C)C` [3-methyl-1-butene] as the compound, how does the flash point read?
**A.** The flash point was -57 °C.

**Q.** With `CCCCCCCF` [1-fluoroheptane] as the compound, how does the flash point read?
**A.** The flash point was 13 °C.

**Q.** Which flash point does the source give for `CCCCOC(C)=O` [n-butyl acetate] here?
**A.** The flash point was 22 °C.

**Q.** With `CC=CC#N` [2-butenenitrile] as the compound, how does the flash point read?
**A.** The flash point was 20 °C.

**Q.** For `CCCCOCC` [butyl ethyl ether], which flash point is on record?
**A.** Its flash point is -5 °C.

**Q.** For `CCC1=NCCO1` [2-ethyloxazoline], which flash point is on record?
**A.** The flash point was 29 °C.

**Q.** With `CCCCON=O` [n-butyl nitrite] as the compound, how does the flash point read?
**A.** The flash point was -13 °C.

**Q.** With `CC(C)(C)SC(C)(C)C` [di-t-butyl sulfide] as the compound, how does the flash point read?
**A.** Its flash point is 48 °C.

**Q.** Which flash point does the source give for `CCOC(OCC)OCC` [triethoxymethane] here?
**A.** The flash point was 30 °C.

**Q.** For `C=CCC(C)C` [4-methyl-1-pentene], which flash point is on record?
**A.** The flash point was -31 °C.

**Q.** With `Cc1cccc2ccccc12` [1-methylnaphthalene] as the compound, how does the flash point read?
**A.** Its flash point is 82 °C.

**Q.** For `CC(C)(C)C#N` [2,2-dimethylpropanenitrile], which flash point is on record?
**A.** Its flash point is 4 °C.

**Q.** For `OCCCO` [1,3-propanediol], which flash point is on record?
**A.** The flash point was 131 °C.

**Q.** Which flash point does the source give for `CC(C)C(C)S` (stereo not given) [3-methyl-2-butanethiol] here?
**A.** The flash point was 19 °C.

**Q.** With `C=CC(=O)OCC` [ethyl acrylate] as the compound, how does the flash point read?
**A.** The flash point was 9 °C.

**Q.** Which flash point does the source give for `CCCC#N` [n-butyronitrile] here?
**A.** The flash point was 16 °C.

**Q.** Which flash point does the source give for `CC(=O)c1ccccc1` [acetophenone] here?
**A.** Its flash point is 82 °C.

**Q.** For `CCCCN=C=O` [butyl isocyanate], which flash point is on record?
**A.** Its flash point is 29 °C.

**Q.** Which flash point does the source give for `CCCC(C)O` (stereo not given) [2-pentanol] here?
**A.** The flash point was 40 °C.

**Q.** Which flash point does the source give for `C1CCC1` [cyclobutane] here?
**A.** The flash point was -65 °C.

**Q.** With `C/C=C/C(=O)O` [crotonic acid] as the compound, how does the flash point read?
**A.** Its flash point is 88 °C.

**Q.** For `CN(C)CCO` [2-dimethylaminoethanol], which flash point is on record?
**A.** Its flash point is 40 °C.

**Q.** With `CC(=O)CC(C)=O` [2,4-pentanedione] as the compound, how does the flash point read?
**A.** Its flash point is 34 °C.

**Q.** With `CCCOCCC` [n-propyl ether] as the compound, how does the flash point read?
**A.** Its flash point is -28 °C.
